In patent US20190375708A1 (VenatoRx Pharmaceuticals, Inc., priority 2018, published 2019):
pEC50: −log10 of the molar value.

Columns and labels:
[1] = tested on: HBV replication in HepAD38 cells; test: Anti-HBV replication assay in HepAD38 cells (QPCR of extracellular HBV DNA); format: cell-based, HBV (genotype D, serotype ayw); details: Hepatitis B virus, 168 h, 7 days incubation, extracellular HBV DNA by QPCR, read-out: Anti-HBV EC50
Protocol: The anti-HBV activity of the Capsid Assembly Modulators (CAMs) was evaluated in a cell based assay utilizing the human hepatoma cell line HepAD38 (Ladner, S K., et al., 1998). HepAD38 cells were derived from the parental line, HepG2, that were stably transfected with a construct containing an HBV genome (genotype D, serotype ayw) under the control of a tetracycline repressible CMV promoter. Upon removal of tetracycline, viral pre-genomic RNA (pgRNA) and mRNAs are expressed and infectious viral particles are assembled and secreted into the culture medium providing a reliable, robust system to measure multiple steps of the HBV life cycle. Disruption of capsid formation results in reduced levels of DNA-containing virus particles that are released into the culture supernatant. To quantify the effect of CAMs on HBV replication, we developed a sensitive QPCR-based assay that measures extracellular HBV DNA levels upon treatment of HepAD38 cells with various concentrations of test compounds.
HepAD38 cells were maintained in DMEM/F12 medium containing 10% FBS, 400 μg/mL G418 and 0.3 μg/mL tetracycline (tet+ media) to maintain repression of HBV replication. To evaluate each compound, HepAD38 cells were seeded into 24-well collagen coated culture plates (Corning BioCoat) at a density of 200,000 cells per well in 1 mL of medium without tetracycline (tet-media) and allowed to adhere overnight at 37° C., 5% CO2 in a humidified incubator. The following day, media was refreshed and a dose range of each compound was prepared by performing 1 log10 serial dilutions in 100% DMSO at 200× the desired assay concentration. Dilutions were then added to the cells resulting in a final dose range of 1 μM to 10 μM and the plates were returned to the incubator. Following 7 days of incubation, culture supernatants were harvested and HBV DNA levels were evaluated by QPCR and compared to the vehicle treated control wells (i.e. DMSO alone).
To quantify HBV DNA levels, cell culture supernatants were diluted 1:10 in sterile, nuclease-free water (Gibco). The diluted supernatants were subsequently added to a PCR master mix containing 1× Roche Light Cycler Master Mix, 0.5 μM forward primer, 0.5 μM reverse primer (Fwd: 5′-[…] (SEQ ID NO 1); Rev: 5′-[…] (SEQ ID NO 2)), 0.2 μM Roche Universal Probe Library Probe 25. The volume was brought to 20 μL with nuclease-free water and amplification of the HBV target sequence was performed using a Roche LightCycler 480 QPCR instrument. PCR extended out to 45 cycles with each cycle consisting of a denaturation step at 95° C. for 10 sec., followed by an annealing step at 60° C. for 10 sec. and a brief extension step at 72° C. for 1 sec.
Extracellular HBV DNA levels, expressed in copies/mL, were determined by comparison to a standard curve (10^2-10^9 copies/mL) using the Roche LightCycler analysis software. These values were subsequently converted to percent inhibition of HBV replication by dividing the HBV DNA levels in the experimental samples with those obtained from the vehicle control (˜1-2×10^5 copies/mL). Potency, expressed as an EC50 (the effective concentration required to inhibit 50% of HBV replication), was calculated from the dose-response curve using a 4-parameter non-linear regression analysis (GraphPad Prism). The nucleoside analog inhibitor entecavir was used as a positive control to validate each assay run. The EC50 value of entecavir in the HepAD38 assay was 0.5 nM, as previously reported in the literature.

[2] = In vitro cytotoxicity assay (MTT cell viability) in HepG2 cells; format: cell-based, human; details: human
Protocol: To evaluate antiviral selectivity, the cytotoxic activity of each compound was determined using a standard cell viability assay performed on the parental HepG2 cell line. Cell viability was determined by measuring the conversion of 3-(4,5-dimethylthiazol-2-yl)-2,5-diphenyltetrazolium bromide (MTT) to the insoluble formazan salt crystal that occurs in live cells. Briefly, HepG2 cells were seeded in 96-well plates at a density of 20,000 cells per well in EMEM+10% FBS (complete growth medium) and allowed to adhere overnight in a 37° C., 5% CO2 humidified incubator. The next day, test agents were prepared by performing 8 half-log10 serial dilutions in 100% DMSO at 200× the final desired concentration in the assay. Compounds were tested over a range of concentrations from 30 μM to 1.0 nM in the assay. HepG2 cells were incubated in the presence of various concentrations of CAMs for 7 days in a 37° C., 5% CO2 humidified incubator. At the completion of the 7-day incubation period, MTT reagent was added to each well and the mixture was incubated for an additional 3-4 hours. At the completion of the incubation period, all wells were aspirated to remove the culture medium. The formazan crystals were solubilized from the cell monolayers with 100% DMSO. Plates were briefly mixed on an orbital shaker and absorbance was measured at 492 nm using a Perkin-Elmer EnVision multi-label plate reader. All absorbance values were converted to a percentage of the signal obtained from the vehicle treated controls. Absorbance values at 492 nm are directly proportional to the number of viable cells present in the sample. A CC50 value (cytotoxic concentration that results in loss of 50% cell viability) was calculated from the dose-response curve by 4-parameter, non-linear regression analysis using the GraphPad Prism software. The positive control compound, staurosporine, reduced the viability of HepG2 cells in a dose-dependent manner (CC50=100 nM).

Row | SMILES | pEC50 [1] | CC50 at 7 days [2]
1 | Cc1cc(NC(=O)c2c(C)c(C(=O)C(=O)NOC(C)(C)C)n(C)c2C)ccc1F [Example 70, 5-(2-(tert-butoxyamino)-2-oxoacetyl)-N-(4-fluoro-3-methylphenyl)-1,2,4-trimethyl-1H-pyrrole-3-carboxamide] | > 7.30 | > 30000 nM
2 | Cc1cc(NC(=O)c2c(C)c(C(=O)C(=O)NC3COCCOC3)n(C)c2C)ccc1F [Example 714, 5-(2-((1,4-dioxepan-6-yl)amino)-2-oxoacetyl)-N-(4-fluoro-3-methylphenyl)-1,2,4-trimethyl-1H-pyrrole-3-carboxamide] | > 7.30 | > 30000 nM
3 | Cc1cc(NC(=O)c2c(C)c(C(=O)C(=O)Nc3ccc(F)nc3)n(C)c2C)cnc1F [Example 340, N-(6-fluoro-5-methylpyridin-3-yl)-5-(2-((6-fluoropyridin-3-yl)amino)-2-oxoacetyl)-1,2,4-trimethyl-1H-pyrrole-3-carboxamide] | 6.00 to 6.30 | > 30000 nM
4 | Cc1cc(NC(=O)c2c(C)c(C(=O)C(=O)N[C@H](C)CCO)n(C)c2C)ccc1F [Example 141, (R)-N-(4-fluoro-3-methylphenyl)-5-(2-((4-hydroxybutan-2-yl)amino)-2-oxoacetyl)-1,2,4-trimethyl-1H-pyrrole-3-carboxamide] | > 7.30 | > 30000 nM
5 | CNC(=O)[C@H](NC(=O)C(=O)c1c(C)c(C(=O)Nc2ccc(F)c(C)c2)c(C)n1C)[C@@H](C)O [Example 62, N-(4-fluoro-3-methylphenyl)-5-(2-(((2R,3R)-3-hydroxy-1-(methylmaino)-1-oxobutan-2-yl)amino)-2-oxoacetyl)-1,2,4-trimethyl-1H-pyrrole-3-carboxamide] | > 7.30 | > 30000 nM
6 | Cc1cc(NC(=O)c2c(C)c(C(=O)C(=O)NC3CC(=O)Nc4ccccc43)n(C)c2C)ccc1F (stereo not drawn) [Example 626, N-(4-fluoro-3-methylphenyl)-1,2,4-trimethyl-5-(2-oxo-2-((2-oxo-1,2,3,4-tetrahdyroquinolin-4-yl)amino)acetyl)-1H-pyrrole-3-carboxamide] | > 7.30 | > 30000 nM
7 | Cc1cc(NC(=O)c2c(C)c(C(=O)C(=O)N[C@H]3CC[C@H](N)CC3)n(C)c2C)ccc1F [Example 232, 5-(2-(((1r,4r)-4-aminocyclohexyl)amino)-2-oxoacetyl)-N-(4-fluoro-3-methylphenyl)-1,2,4-trimethyl-1H-pyrrole-3-carboxamide] | > 7.30 | > 30000 nM
8 | Cc1cc(NC(=O)c2c(C)c(C(=O)C(=O)NC(C)(C)c3noc(CN(C)C)n3)n(C)c2C)ccc1F [Example 154, 5-(2-((2-(5-((dimethylamino)methyl)-1,2,4-oxadiazol-3-yl)propan-2-yl)amino)-2-oxoacetyl)-N-(4-fluoro-3-methylphenyl)-1,2,4-trimethyl-1H-pyrrole-3-carboxamide] | > 7.30 | > 30000 nM
9 | Cc1cc(NC(=O)c2c(C)c(C(=O)C(=O)NC3CCN(c4nccs4)CC3)n(C)c2C)ccc1F [Example 656] | > 7.30 | 5000 to 30000 nM
10 | Cc1cc(NC(=O)c2c(C)c(C(=O)C(=O)NC(C)(C)COC(F)F)n(C)c2C)ccc1F [Example 718, 5-(2-((1-(difluoromethoxy)-2-methylpropan-2-yl)amino)-2-oxoacetyl)-N-(4-fluoro-3-methylphenyl)-1,2,4-trimethyl-1H-pyrrole-3-carboxamide] | > 7.30 | 5000 to 30000 nM
11 | Cc1cc(NC(=O)c2c(C)c(C(=O)C(=O)NC(C)(C)c3nc(CN(C)C)no3)n(CCF)c2C)ccc1F [Example 202, 5-(2-((2-(3-((dimethylamino)methyl)-1,2,4-oxadiazol-5-yl)propan-2-yl)amino)-2-oxoacetyl)-N-(4-fluoro-3-methylphenyl)-1-(2-fluoroethyl)-2,4-dimethyl-1H-pyrrole-3-carboxamide] | 6.30 to 7.30 | > 30000 nM
12 | O=C(NC1(CO)CC(F)(F)C1)C(=O)c1c(Cl)c(C(=O)Nc2ccc(F)c(F)c2)c2n1CCC2 [Example 581, 6-chloro-5-(2-((3,3-difluoro-1-(hydroxymethyl)cyclobutyl)amino)-2-oxoacetyl)-N-(3,4-difluorophenyl)-2,3-dihydro-1H-pyrrolizine-7-carboxamide] | > 7.30 | 5000 to 30000 nM
13 | Cc1cnc(C(C)(C)NC(=O)C(=O)c2cc(C(=O)Nc3ccc(F)c(C)c3)c3n2CCCC3)s1 [Example 413, N-(4-fluoro-3-methylphenyl)-3-(2-((2-(5-methylthiazol-2-yl)propan-2-yl)amino)-2-oxoacetyl)-5,6,7,8-tetrahydroindolizine-1-carboxamide] | 6.30 to 7.30 | > 30000 nM
14 | Cc1c(C(=O)Nc2ccc(F)c(F)c2)c2n(c1C(=O)C(=O)N[C@H]1CCC[C@H]1O)CCCC2 [Example 458, N-(3,4-difluorophenyl)-3-(2-(((1S,2R)-2-hydroxycyclopentyl)amino)-2-oxoacetyl)-2-methyl-5,6,7,8-tetrahydroindolizine-1-carboxamide] | 6.00 to 6.30 | 5000 to 30000 nM
15 | Cc1c(C(=O)Nc2ncc(C(F)(F)F)s2)c2n(c1C(=O)C(=O)NC1(CO)CCC1)CCCC2 [Example 749, 3-(2-((1-(hydroxymethyl)cyclobutyl)amino)-2-oxoacetyl)-2-methyl-N-(5-(trifluoromethyl)thiazol-2-yl)-5,6,7,8-tetrahydroindolizine-1-carboxamide] | 6.30 to 7.30 | > 30000 nM
16 | Cc1cc(NC(=O)c2c(C)c(C(=O)C(=O)N[C@@H]3CC[C@@H](O)C3)n(C)c2C)cnc1F [Example 176, N-(6-fluoro-5-methylpyridin-3-yl)-5-(2-(((1R,3R)-3-hydroxycyclopentyl)amino)-2-oxoacetyl)-1,2,4-trimethyl-1H-pyrrole-3-carboxamide] | 6.30 to 7.30 | > 30000 nM
17 | Cc1cc(NC(=O)c2c(C)c(C(=O)C(=O)NC3(C(F)(F)F)CCC3)n(C)c2C)ccc1F [Example 236, N-(4-fluoro-3-methylphenyl)-1,2,4-trimethyl-5-(2-oxo-2-((1-(trifluoromethyl)cyclobutyl)amino)acetyl)-1H-pyrrole-3-carboxamide] | > 7.30 | 5000 to 30000 nM
18 | Cc1cc(NC(=O)c2c(C)c(C(=O)C(=O)N3[C@@H]4CC[C@H]3C[C@H](O)C4)n(C)c2C)ccc1F [Example 48, N-(4-fluoro-3-methylphenyl)-5-(2-((1R,3s,5S)-3-hydroxy-8-azabicyclo[3.2.1]octan-8-yl)-2-oxoacetyl)-1,2,4-trimethyl-1H-pyrrole-3-carboxamide] | 6.30 to 7.30 | > 30000 nM
